Legend:
anemic juvenile baboons = experiment: In vivo reticulocyte proliferation and globin expression in phlebotomized anemic baboons; parameters: species or system baboon
Method: Experiments were performed to determine if administration of the chemical compositions could induce fetal globin gene expression in an in vivo model similar to humans (S. P. Perrin et al., Brit. J. Haematol. 88:555-61, 1994). Briefly, chemicals were prepared as sterile pharmaceutical solutions in pH adjusted sterile water. A variety of chemical compositions were administered sequentially to some baboons. After administration of one compound, a wash-out period with no compound administration was maintained until reticulocytes returned to base line prior to administration of the next compound. This was done, at least partly, to compare the magnitude of response which occurred within the same individual animal to different compounds.
Briefly, juvenile female baboons (2 years old) were catheterized with arterial and venous catheters and phlebotomized gradually every day to maintain a moderate anemia of 7.0 to 7.5 grams hemoglobin/dl. Fetal reticulocytes, the newly produced red blood cells containing fetal globin, were assayed using a monoclonal antibody against fetal globin (HbF) as described by G. Dover et al. (Blood 67:735-38, 1986). Briefly, blood was stained with two antibodies, one specific for reticulocytes and another against fetal globin protein. The amount of antibody bound cells was determined by FACS analysis. Globin chain synthesis was assayed as described by J. B. Clegg et al. (J. Mol. Biol. 19:91-108, 1966). Briefly, reticulocytes were radio-labeled with ^3H-leucine which was incorporated in equal proportions into actively synthesized globin chains. After incubation in leucine-free media, cells were washed, and globin proteins were separated and purified by column chromatography. Radioactivity incorporated into each peak is compared and the ratios of gamma to gamma plus beta globin calculated. Each animal served as its own control with baseline monitoring assays performed for 4-6 weeks before any drug was administered. Phlebotomy was continued daily, so that peripheral HbF levels in the animals were not considered to be accurate over the short treatment time-frames and were not monitored. Safety monitoring was performed by frequent physical examinations, quantitation of food eaten, activity and frequent chemistry and hematology monitoring. Complete blood counts were assayed before, during and after treatment. Results presented were not adjusted to account for the daily phlebotomy.

[1] = system: Human erythroleukemia cells; experiment: Fetal globin mRNA in erythroleukemia cells by primer extension; assay type: cell-based; details: 1.0 mM, 4 days
Method: Compounds were tested for increased expression of the human globin genes in human erythroid cells. In addition, as the cell line being tested is a tumor cell line, the assay determines if differentiation, a growth inhibitory effect on cancer cells, is induced by the compounds tested. Human erythroleukemia cells were cultured in RPMI media with 10% fetal calf serum alone or with treatment with various compounds for 4 days. Globin mRNA was quantitated by primer extension analysis. Fetal globin mRNA was compared to the amount of fetal globin mRNA produced in untreated cells during the same culture period. The quantitation was expressed as a percent of alpha globin mRNA which was constant. Results are expressed proportional to α-globin mRNA (Table 3).

[2] = system: erythroid progenitor cells cultured from human cord blood; experiment: Fetal globin expression in human cell cultures (3H-leucine labelled globin chains, densitometry); assay type: cell-based; details: for Gamma Increase: Exp. B, 12-13 days
Method: Compositions were tested for activity in inducing fetal globin expression and protein production in erythroid progenitor cells cultured from human cord blood and analyzed as described by S. P. Perrine et al. (Blood 74: 454-60, 1989). Briefly, mononuclear cells were cultured in IMDM with 30% fetal calf serum and 2 units erythropoietin per ml to induce erythroid differentiation. Colonies were harvested on day 12-13, incubated with radio-labelled (^3H) leucine, and further incubated in leucine-free media, still in the presence of compounds, overnight. Globin composition in the erythroid cells was analyzed by laser densitometry of electrophoretically separated globin chains stained with Coomassie blue, and by autoradiography. Treated cells were incubated for 12-13 days (Table 2, Experiments A and B) or overnight (Table 2, Experiment C) in the presence of the indicated compounds and compared to untreated control cells cultured from the same human subject.

[3] = system: proximal promoter of the gamma globin gene in K562 cells; experiment: Gamma globin promoter-neomycin (NEO) transfection, colony survival in G418; assay type: cell-based, human; details: 1 mM, 8 weeks
Method: Gamma globin promoter-neomycin transfection experiments were performed to determine if compounds act by inducing an increase in activity from the proximal promoter of the gamma globin gene. Constructs containing 61 by of the proximal gamma globin promoter were linked to the reporter gene for neomycin phosphotransferase (NEO) and transfected into permissive K562 cells by electroporation. After 18 hours, transfected cells were passed at 10^3 cells per well into RPMI media containing G418 (neomycin), which kills all mammalian cells unless the gene for NEO is expressed. Phenoxyacetic acid and thiophenoxyacetic acid were added to some of the cells plated into the RPMI/G418 media at concentrations of 1 mM. Cultures were incubated for 8 weeks with media changes performed as needed. Colonies which survived and grew in the presence of G418 were scored and the number of such colonies was compared to those generated when the cells were plated into G418 media without the test compounds. No colonies in the 24 wells survived in the absence of compounds. There was a greater than 6-fold (>600%) increase in proportions of colonies surviving the presence of phenoxyacetic acid (6/24 wells) and a three-fold (300%) increase in survival in the presence of thiophenoxyacetic acid (3/24 wells).

[4] = system: system A transport in K562 cells and nucleated erythroblasts from fetal liver; experiment: System A (neutral amino acid) transport, 3H-MAIB uptake; assay type: cell-based, human; details: 1 hour incubation; FIG. 12
Method: Inhibition of nutrient uptake is undesirable for treatment of anemias. Methyl aminoisobutyric acid (MAIB) labeled with tritium (^3H) is normally taken up by system A amino acid transport. Cold (unlabeled) compounds were added to cultures containing ^3H-MAIB and incubated for 1 hour. Cells were harvested and the amount of ^3H taken up by cells was quantitated by scintillation counting.

## CCCC(=O)OCC(O)CO (stereo not shown) [MB, monobutyrin]
Anemic juvenile baboons; intravenous each day, 4 days, 500 to 2,000 mg/kg
  fetal reticulocytes above basal levels: 220%
Anemic juvenile baboons; intravenous each day, 4 days, 500 to 2,000 mg/kg, from 12%
  fetal reticulocytes after treatment: 27%
[1]
  induction of fetal globin mRNA in human cells: significantly increased
[1]; untreated 0.46
  Gamma/Alpha (fetal globin mRNA proportional to α-globin mRNA): 0.73
[1]; versus untreated
  Gamma Globin mRNA (increase ↑): 26% ↑

## CC(CO)C(N)=O (stereo not shown) [MHPP, 2 methyl-3-hydroxypropionamide, reference compound]
[2]; 0.05 mM
  Gamma Increase: 2.0%
[2]; 1.0 mM
  Gamma Increase: −3.5%
[2]; concentrations above 0.25 mM
  expression of fetal globin (FIG. 4): decreased the expression of fetal globin
[2]; concentrations below 0.25 mM
  expression of fetal globin (FIG. 4): increased fetal globin expression

## O=C(O)CSc1ccccc1 [thiophenoxyacetic acid]
[3]
  increase in proportions of colonies surviving G418: 300%
[3]; no colonies without compounds
  increase in proportions of colonies surviving G418: three-fold

## CCCC(=O)OCC(COC(=O)CCC)OC(=O)CCC [tributyrin]
Anemic juvenile baboons; intravenous 3 days, 500 to 750 mg/kg per day, from 0%
  gamma globin expression after treatment: about 2.2 % of total non-alpha globin expression
Anemic juvenile baboons; intravenous 3 days, 500 to 750 mg/kg per day, from 10%
  fetal reticulocytes after treatment: 14%

## CC(=Cc1ccccc1)C(=O)O [α-methyl cinnamic acid]
[4]
  system A transport of amino acids (3H-MAIB uptake): do not significantly alter

## CC(Cc1ccccc1)C(=O)O (stereo not drawn) [α-methyl hydrocinnamic acid]
Anemic juvenile baboons; baboon, infused 8 h/day, 5 days: 500 mg/kg 2 days, 700 mg/kg 2 days, 1,000 mg/kg 1 day, over 3 days
  rise of total hemoglobin: 1.5 grams/dl
Anemic juvenile baboons; same regimen (500/700/1,000 mg/kg, 5 days), rose from 2.28
  red blood cell count after treatment: 3.53 ×10^6 red blood cells per microliter
Anemic juvenile baboons; same regimen (500/700/1,000 mg/kg, 5 days), rose from 5.6%
  total number of reticulocytes after treatment: 11%
Anemic juvenile baboons; same regimen (500/700/1,000 mg/kg, 5 days), rose from 6.4
  total hemoglobin after treatment: 7.9 grams/dl
Anemic juvenile baboons; same regimen (500/700/1,000 mg/kg, 5 days), rose from 19.5%
  packed red blood cell volume after treatment: 31.2 % of total blood volume
Anemic juvenile baboons; same regimen (500/700/1,000 mg/kg, 5 days), rose from 26.7
  platelet count after treatment: 46.8 ×10^4 cells/μl
Anemic juvenile baboons; second baboon, 500 mg/kg 8 h, 700 mg/kg 8 h, 700 mg/kg 2, 4 and 6 h, after 5 days, from 4.0%
  total fetal globin synthesis after treatment: 10.8%
Anemic juvenile baboons; second baboon, 500-700 mg/kg, 5 days
  rise of total hemoglobin: 1.4 grams
Anemic juvenile baboons; second baboon, 500-700 mg/kg, 5 days, from 2.3×10^6
  red blood cell counts after treatment: 2.82×10^6
Anemic juvenile baboons; second baboon, 500-700 mg/kg, 5 days, from 4.6
  total hemoglobin after treatment: 6.0 g/dL
Anemic juvenile baboons; second baboon, 500-700 mg/kg, 5 days, from 14.5%
  packed red blood cell volume after treatment: 20.2%
Anemic juvenile baboons; second baboon, 500-700 mg/kg, 5 days, from 8,700
  white blood cell counts, maximum: 14,300
Anemic juvenile baboons; second baboon, 500-700 mg/kg, 5 days, from 328,000
  platelet counts, high: 486,000
Anemic juvenile baboons; third baboon, 5 days
  adverse effects: No adverse affects were observed
Anemic juvenile baboons; third baboon, after 5 days, from 0%
  fetal globin protein synthesis after treatment: 6.2 % of non-alpha globin
Anemic juvenile baboons; third baboon, same dose, after 5 days (FIG. 8), from 0%
  fetal hemoglobin producing reticulocytes after treatment: 10%
[4]
  system A transport of amino acids (3H-MAIB uptake): caused no significant inhibition and actually increased uptake of nutrients into cells
